Where two headings read alike, the source gives them in different places.
Test system: amyloid β production in transfected H4 (human neuroglioma) cells stably expressing APP constructs
Assay: In vitro cell-based assay of inhibitors of amyloid β production (ELISA)
Details: transfected H4 cells stably expressing APP constructs, approximately 16 hours incubation, amyloid β in medium by ELISA, read-out: ACTIVITY (IC50, inhibition of amyloid β production)
In short: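 Aβ secreted into the medium was determined by a two-antibody ELISA specific for the Aβ C-terminus, calibrated with known Aβ amounts. Before that, compounds (10-100 μM initially) were left on the cells for roughly 16 hours.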

Row | Structure (SMILES) | IC50 [nM] | IC50 (Homo sapiens, 16 h) [nM]
1 | CC(C)SCCC[C@@H](C)N(c1cc(Cl)ccc1Cl)S(=O)(=O)c1ccc(Cl)cc1 [Example 1190] | 100 to 500 | –
2 | COC(=O)CS(=O)(=O)CC[C@@H](C)N(c1cc(Cl)ccc1Cl)S(=O)(=O)c1ccc(Cl)cc1 [Example 1191, methyl(6R)-6-[(2,5-dichlorophenyl)-[(4-chlorophenyl)sulfonyl]-amino]-3-thioheptanoic acid, 3,3-dioxide] | 100 to 500 | –
3 | C[C@H](CCCS(=O)(=O)O)N(c1cc(Cl)ccc1F)S(=O)(=O)c1ccc(Cl)cc1 [Example 1192, (4R)-4-[N-[5-chloro-2-fluorophenyl][(4-chlorophenyl)sulfonyl]amino]pentylsulfonic acid] | – | 100 to 500
4 | COC(=O)C[S+]([O-])CC[C@@H](C)N(c1cc(Cl)ccc1Cl)S(=O)(=O)c1ccc(Cl)cc1 (stereo partly drawn) [Example 1193, methyl(6R)-6-[(2,5-dichlorophenyl)-[(4-chlorophenyl)sulfonyl]-amino]-3-thioheptanoic acid, 3-oxide] | 100 to 500 | –
5 | C[C@H](CCCS(=O)(=O)O)N(c1cc(Cl)ccc1Cl)S(=O)(=O)c1ccc(Cl)cc1 [Example 1194, (4R)-4-[N-[2,5-dichlorophenyl][(4-chlorophenyl)sulfonyl]amino]pentylsulfonic acid] | – | 100 to 500
6 | COS(=O)(=O)CCC[C@@H](C)N(c1cc(Cl)ccc1Cl)S(=O)(=O)c1ccc(Cl)cc1 [Example 1195, methyl(4R)-4-[N-[2,5-dichlorophenyl][(4-chlorophenyl)sulfonyl]amino]pentylsulfonate] | – | > 500
7 | C[C@H](CC[S+]([O-])CC(=O)O)N(c1cc(Cl)ccc1Cl)S(=O)(=O)c1ccc(Cl)cc1 (stereo partly drawn) [Example 1196, (6R)-6-[(2,5-dichlorophenyl)-[(4-chlorophenyl)sulfonyl]-amino]-3-thioheptanoic acid, 3-oxide] | > 500 | –
8 | C[C@H](CCS(=O)(=O)CC(=O)O)N(c1cc(Cl)ccc1Cl)S(=O)(=O)c1ccc(Cl)cc1 [Example 1197, (6R)-6-[(2,5-dichlorophenyl)-[(4-chlorophenyl)sulfonyl]-amino]-3-thioheptanoic acid, 3,3-dioxide] | > 500 | –
9 | C[C@H](CCCS(=O)(=O)N1CCC1)N(c1cc(Cl)ccc1Cl)S(=O)(=O)c1ccc(Cl)cc1 [Example 1198, 4-chloro-N-[2,5-dichlorophenyl]-N-[4-[(1-azetidinyl)sulfonyl]-1(R)-methylbutyl]benzenesulfonamide] | – | ≤ 25
10 | CNS(=O)(=O)CCC[C@@H](C)N(c1cc(Cl)ccc1Cl)S(=O)(=O)c1ccc(Cl)cc1 [Example 1199, 4-chloro-N-[2,5-dichlorophenyl]-N-[4-[(methylamino)sulfonyl]-1(R)-methylbutyl]benzenesulfonamide] | – | ≤ 25
11 | C[C@H](CCCS(=O)(=O)N1CCC1)N(c1cc(F)ccc1F)S(=O)(=O)c1ccc(Cl)cc1 [Example 1200, 4-chloro-N-[2,5-difluorophenyl]-N-[4-[(1-azetidinyl)sulfonyl]-1(R)-methylbutyl]benzenesulfonamide] | – | ≤ 25
12 | C[C@H](CCCS(=O)(=O)N(C)C)N(c1cc(Cl)ccc1Cl)S(=O)(=O)c1ccc(Cl)cc1 [Example 1201, 4-chloro-N-[2,5-dichlorophenyl]-N-[4-[(dimethylamino)sulfonyl]-1(R)-methylbutyl]benzenesulfonamide] | – | ≤ 25
13 | C[C@H](CCCS(=O)(=O)N(C)C)N(c1cc(Cl)ccc1F)S(=O)(=O)c1ccc(Cl)cc1 [Example 1202, 4-chloro-N-(5-chloro-2-fluorophenyl)-N-[4-[(dimethylamino)sulfonyl]-1(R)-methylbutyl]benzenesulfonamide] | – | ≤ 25
14 | CNS(=O)(=O)CCC[C@@H](C)N(c1cc(Cl)ccc1F)S(=O)(=O)c1ccc(Cl)cc1 [Example 1203, 4-chloro-N-(5-chloro-2-fluorophenyl)-N-[4-[(methylamino)sulfonyl]-1(R)-methylbutyl]benzenesulfonamide] | – | ≤ 25
15 | C[C@H](CCCS(=O)(=O)N1CCCC1)N(c1cc(Cl)ccc1Cl)S(=O)(=O)c1ccc(Cl)cc1 [Example 1204, 4-chloro-N-[2,5-dichlorophenyl]-N-[4-[(1-pyrrolidinyl)sulfonyl]-1(R)-methylbutyl]benzenesulfonamide] | – | ≤ 25
16 | C[C@H](CCCS(=O)(=O)N1CCCC1)N(c1cc(Cl)ccc1F)S(=O)(=O)c1ccc(Cl)cc1 [Example 1205, 4-chloro-N-(5-chloro-2-fluorophenyl)-N-[4-[(1-pyrrolidinyl)sulfonyl]-1(R)-methylbutyl]benzenesulfonamide] | – | ≤ 25
17 | C[C@H](CCCS(=O)(=O)N(C)C)N(c1cc(F)ccc1F)S(=O)(=O)c1ccc(Cl)cc1 [Example 1206, 4-chloro-N-[2,5-difluorophenyl]-N-[4-[(dimethylamino)sulfonyl]-1(R)-methylbutyl]benzenesulfonamide] | – | ≤ 25
18 | CNS(=O)(=O)CCC[C@@H](C)N(c1cc(F)ccc1F)S(=O)(=O)c1ccc(Cl)cc1 [Example 1207, 4-chloro-N-[2,5-difluorophenyl]-N-[4-[(methylamino)sulfonyl]-1(R)-methylbutyl]benzenesulfonamide] | – | ≤ 25

Row | Structure (SMILES) | IC50 [nM] | IC50 (Homo sapiens, 16 h) [nM]
19 | CCNS(=O)(=O)CCC[C@@H](C)N(c1cc(Cl)ccc1Cl)S(=O)(=O)c1ccc(Cl)cc1 [Example 1208, 4-chloro-N-[2,5-dichlorophenyl]-N-[4-[(ethylamino)sulfonyl]-1(R)-methylbutyl]benzenesulfonamide] | – | ≤ 25
20 | C[C@H](CCCS(=O)(=O)N1CCOCC1)N(c1cc(Cl)ccc1Cl)S(=O)(=O)c1ccc(Cl)cc1 [Example 1209, 4-chloro-N-[2,5-dichlorophenyl]-N-[4-[(4-morpholinyl)sulfonyl]-1(R)-methylbutyl]benzenesulfonamide] | – | ≤ 25
21 | C[C@H](CCCS(N)(=O)=O)N(c1cc(Cl)ccc1Cl)S(=O)(=O)c1ccc(Cl)cc1 [Example 1210, N-[4-(aminosulfonyl)-1(R)-methylbutyl]-4-chloro-N-(2,5-dichlorophenyl)benzenesulfonamide] | – | ≤ 25
22 | C[C@H](CCCS(=O)(=O)N1CCSCC1)N(c1cc(Cl)ccc1Cl)S(=O)(=O)c1ccc(Cl)cc1 [Example 1211, 4-chloro-N-[2,5-dichlorophenyl]-N-[4-[(4-thiomorpholinyl)sulfonyl]-1(R)-methylbutyl]benzenesulfonamide] | – | ≤ 25
23 | CC(C)N(C)S(=O)(=O)CCC[C@@H](C)N(c1cc(Cl)ccc1Cl)S(=O)(=O)c1ccc(Cl)cc1 [Example 1212, 4-chloro-N-[2,5-dichlorophenyl]-N-[4-[[N-(1-methylethyl)methylamino]sulfonyl]-1(R)-methylbutyl]benzenesulfonamide] | – | ≤ 25
24 | CCN(CC)S(=O)(=O)CCC[C@@H](C)N(c1cc(Cl)ccc1Cl)S(=O)(=O)c1ccc(Cl)cc1 [Example 1213, 4-chloro-N-[2,5-dichlorophenyl]-N-[4-[(diethylamino)sulfonyl]-1(R)-methylbutyl]benzenesulfonamide] | – | ≤ 25
25 | C[C@H](CCCS(=O)(=O)NC1CCS(=O)(=O)C1)N(c1cc(Cl)ccc1Cl)S(=O)(=O)c1ccc(Cl)cc1 (stereo partly drawn) [Example 1214, 4-chloro-N-[2,5-dichlorophenyl]-N-[4-[[(tetrahydro-1,1-dioxido-3-thienyl)amino]sulfonyl]-1(R)-methylbutyl]benzenesulfonamide] | – | ≤ 25
26 | C[C@H](CCCS(=O)(=O)N(C)C1CCCC1)N(c1cc(Cl)ccc1Cl)S(=O)(=O)c1ccc(Cl)cc1 [Example 1215, 4-chloro-N-[2,5-dichlorophenyl]-N-[4-[[(N-cyclopentyl)methylamino]sulfonyl]-1(R)-methylbutyl]benzenesulfonamide] | 25 to 50 | –
27 | CC(C)CNS(=O)(=O)CCC[C@@H](C)N(c1cc(Cl)ccc1Cl)S(=O)(=O)c1ccc(Cl)cc1 [Example 1216, 4-chloro-N-[2,5-dichlorophenyl]-N-[4-[(2-methylpropylamino)sulfonyl]-1(R)-methylbutyl]benzenesulfonamide] | – | 50 to 100
28 | CCS(=O)(=O)CCC[C@@H](C)N(c1cc(Cl)ccc1CO)S(=O)(=O)c1ccc(Cl)cc1 [Example 1217, 4-chloro-N-[5-chloro-2-(hydroxymethyl)phenyl]-N-[1(R)-methyl-(4-ethylsulfonyl)butyl]benzenesulfonamide] | ≤ 25 | –
29 | C[C@H](CCCS(=O)(=O)C(C)(C)C)N(c1cc(Cl)ccc1CO)S(=O)(=O)c1ccc(Cl)cc1 [Example 1218] | ≤ 25 | –
30 | CC(C)[S+]([O-])CCC[C@@H](C)N(c1cc(Cl)ccc1CO)S(=O)(=O)c1ccc(Cl)cc1 (stereo partly drawn) [Example 1219] | ≤ 25 | –
31 | CC(C)S(=O)(=O)CCC[C@@H](C)N(c1cc(Cl)ccc1CO)S(=O)(=O)c1ccc(Cl)cc1 [Example 1220] | ≤ 25 | –
32 | C[C@H](CCC[S+]([O-])C(C)(C)C)N(c1cc(Cl)ccc1CO)S(=O)(=O)c1ccc(Cl)cc1 (stereo partly drawn) [Example 1221] | ≤ 25 | –
33 | CC[S+]([O-])CCC[C@@H](C)N(c1cc(Cl)ccc1CO)S(=O)(=O)c1ccc(Cl)cc1 (stereo partly drawn) [Example 1222, 4-chloro-N-[5-chloro-2-(hydroxymethyl)phenyl]-N-[1(R)-methyl-(4-ethylsulfinyl)butyl]benzenesulfonamide] | ≤ 25 | –
34 | CC(C)SCCC[C@@H](C)N(c1cc(Cl)ccc1CO)S(=O)(=O)c1ccc(Cl)cc1 [Example 1223] | ≤ 25 | –
35 | C[C@H](CCC[S+](C)[O-])N(c1cc(Cl)ccc1CO)S(=O)(=O)c1ccc(Cl)cc1 (stereo partly drawn) [Example 1224, 4-chloro-N-[5-chloro-2-(hydroxymethyl)phenyl]-N-[1(R)-methyl-(4-methylsulfinyl)butyl]benzenesulfonamide] | ≤ 25 | –
36 | C[C@H](CCCS(C)(=O)=O)N(c1cc(Cl)ccc1CO)S(=O)(=O)c1ccc(Cl)cc1 [Example 1225, 4-chloro-N-[5-chloro-2-(hydroxymethyl)phenyl]-N-[1(R)-methyl-(4-methylsulfonyl)butyl]benzenesulfonamide] | ≤ 25 | –

— patent publication US6967196B1, “Sulfonamide compounds and uses thereof” (Bristol-Myers Squibb Company, priority 1999, dated 2005)
